Earlier results on one substance are cited in patent publication US8129131B2, “Pin1 as a marker for abnormal cell growth” (Beth Israel Deaconess Medical Center, priority 1999, dated 2012).

The data set deals with Pin1 or its WW domain. Conditions: pre-incubation with various peptide concentrations before mitotic extracts; concentration-dependent.
Pin1 or its WW domain, sequence (Q13526 1-39 limits assumed): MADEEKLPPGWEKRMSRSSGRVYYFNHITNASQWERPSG

For the substance WFYpSPRLKK [Pintide], the “phosphoprotein-binding activity of Pin1 or its WW domain” value is given as “significantly reduced”.
